Experimental data from patent US9232796B2, “Herbicidal compositions comprising 4-amino-3-chloro-5-fluoro-6-(4-chloro-2-fluoro-3-methoxyphenyl) pyridine-2-carboxylic acid or a derivative thereof and acetyl-CoA carboxylase (ACCase) inhibitors” (DOW AGROSCIENCES LLC, priority 2012, dated 2016).

Key:
[1] = system: CYPES; assay: Example V (second) postemergence foliar-applied ternary mixtures, greenhouse, direct seeded rice weeds; format: in vivo, Cyperus esculentus L.
Procedure: (§1) The treated plants and control plants were placed in a greenhouse as described above and watered by sub-irrigation to prevent wash-off of the test compounds. After approximately 3 weeks, the condition of the test plants as compared with that of the untreated plants was determined visually and scored on a scale of 0 to 100 percent where 0 corresponds to no injury or growth inhibition and 100 corresponds to complete kill.
(§2) Colby's equation was used to determine the herbicidal effects expected from the mixtures (Colby, S. R. 1967. Calculation of the synergistic and antagonistic response of herbicide combinations. Weeds 15:20-22.).
(§3) The following equation was used to calculate the expected activity of mixtures containing three active ingredients, A, B, and C: Expected=A+B+C−((A×B+A×C+B×C)/100)+(A×B×C/10000)

[2] = system: IPOHE; assay: as above; format: in vivo, Ipomoea hederacea Jacq.; settings: 6 gae/ha
Procedure: as §1, §2, §3

[3] = system: LEFCH; assay: as above; format: in vivo, Leptochloa chinensis (L.) Nees
Procedure: as §1, §2, §3

[4] = system: PHAMI; assay: Example IV postemergence foliar-applied, greenhouse, cereal crops weeds; format: in vivo, Phalaris minor Retz.
Procedure: (§4) Seeds of the desired test plant species were planted in Sun Gro MetroMix® 306 planting mixture, which typically has a pH of 6.0 to 6.8 and an organic matter content of about 30 percent, in plastic pots with a surface area of 103.2 square centimeters (cm^2). […] The plants were grown for 7-36 days in a greenhouse with an approximate 14 hour photoperiod which was maintained at about 18° C. during the day and about 17° C. during the night. Nutrients and water were added on a regular basis and supplemental lighting was provided with overhead metal halide 1000-Watt lamps as necessary. The plants were employed for testing when they reached the second or third true leaf stage.
(§5) Treatments consisted of the benzyl ester of 4-amino-3-chloro-5-fluoro-6-(4-chloro-2-fluoro-3-methoxy-phenyl)pyridine-2-carboxylic acid (Compound A), formulated as an SC, a second cereal herbicide alone and then both in combination.
(§6) Other herbicidal components were applied on an active ingredient basis and included acetyl-CoA carboxylase (ACCase)-inhibiting herbicides clodinafop-propargyl, fenoxaprop-P-ethyl, pinoxaden and tralkoxydim.
(§7) Measured aliquots of benzyl ester of 4-amino-3-chloro-5-fluoro-6-(4-chloro-2-fluoro-3-methoxy-phenyl)pyridine-2-carboxylic acid (Compound A) were placed in 25 milliliter (mL) glass vials and diluted in a volume of 1.25% (v/v) Agri-Dex® crop oil concentrate to obtain stock solutions. Compound requirements are based upon a 12 mL application volume at a rate of 187 liters per hectare (L/ha). […] Formulated compounds were applied to the plant material with an overhead Mandel track sprayer equipped with an 8002E nozzle calibrated to deliver 187 L/ha over an application area of 0.503 square meters (m^2) at a spray height of 18 inches (46 cm) above average plant canopy. Control plants were sprayed in the same manner with the solvent blank.
as §1, with “20-22 days,” for “approximately 3 weeks,”, “control” for “untreated”, “injury” for “injury or growth inhibition”
as §2
(§8) The following equation was used to calculate the expected activity of mixtures containing two active ingredients, A and B: Expected=A+B−(A×B/100)

[5] = system: IPOHE; assay: Example I postemergence foliar-applied, greenhouse, direct seeded rice weeds; format: in vivo, Ipomoea hederacea Jacq.
From the text: (§9) Seeds or nutlets of the desired test plant species were planted in a soil matrix prepared by mixing a loam or sandy loam soil (e.g., 28.6 percent silt, 18.8 percent clay, and 52.6 percent sand, with a pH of about 5.8 and an organic matter content of about 1.8 percent) and calcareous grit in an 80 to 20 ratio. The soil matrix was contained in plastic pots with a volume of 1 quart and a surface area of 83.6 square centimeters (cm^2). When required to ensure good germination and healthy plants, a fungicide treatment and/or other chemical or physical treatment was applied. The plants were grown for 8-22 days in a greenhouse with an approximate 14 hr. photoperiod which was maintained at about 29° C. during the day and 26° C. during the night. Nutrients (Peters Excel® 15-5-15 5-Ca 2-Mg and iron chelate) were applied in the irrigation solution as needed and water was added on a regular basis. Supplemental lighting was provided with overhead metal halide 1000-Watt lamps as necessary. The plants were employed for testing when they reached the first through fourth true leaf stage.
(§10) Treatments consisted of the acid or esters of 4-amino-3-chloro-5-fluoro-6-(4-chloro-2-fluoro-3-methoxy-phenyl)pyridine-2-carboxylic acid (Compound A), each formulated as an SC (suspension concentrate), and various herbicidal components alone and in combination.
(§11) Other herbicidal components were applied on an acid equivalent (ae) or active ingredient (ai) basis and included acetyl coA carboxylase (ACCase)-inhibiting herbicides (cyclohexanedione and aryloxyphenoxypropionate chemical classes) cyhalofop-butyl formulated as Clincher® SF (285 gr ai/L EC), diclofop-methyl formulated as Hoelon® 3EC, fenoxaprop-p-ethyl+isoxadifen-ethyl formulated as RiceStar® HT (0.58 lb./gal EC), fenoxaprop-p-ethyl+mefenpyr diethyl formulated as Puma® IEC, metamifop formulated as Metamifop EC, haloxyfop-methyl formulated as Gallant Super®, fluazifop-p-butyl formulated as Fusilade® DX, quizalofop-p-ethyl formulated as Assure® II, profoxydim formulated as Aura® 20EC, clethodim applied as Intensity®, sethoxydim formulated as Poast®, and tralkoxydim formulated as Achieve®.
(§12) Treatment requirements were calculated based upon the rates being tested, the concentration of active ingredient or acid equivalent in the formulation, and a 12 mL application volume at a rate of 187 L/ha.
(§13) For treatments comprised of formulated compounds, measured amounts of compounds were placed individually in 25 mL glass vials and diluted in a volume of 1.25% (v/v) Agri-Dex® crop oil concentrated to obtain 12× stock solutions. […] Application solutions were prepared by adding an appropriate amount of each stock solution (e.g., 1 mL) and diluted to the appropriate final concentrations with the addition of 10 mL of an aqueous mixture of 1.25% (v/v) crop oil concentrate so that the final spray solutions contained 1.25+/−0.05% (v/v) crop oil concentrate.
(§14) All stock solutions and applications solutions were visually inspected for compound compatibility prior to application. Spray solutions were applied to the plant material with an overhead Mandel track sprayer equipped with a 8002E nozzles calibrated to deliver 187 L/ha over an application area of 0.503 m^2 at a spray height of 18 to 20 inches (46 to 50 cm) above average plant canopy height. Control plants were sprayed in the same manner with the solvent blank.
as §1, with “kill. […]” for “kill.”

[6] = system: ECHCO; assay: as above; format: in vivo, Echinochloa colona (L.) Link
From the text: as §9, §10, §11, §12, §13, §14
as §1, with “kill. […]” for “kill.”

[7] = system: KCHSC; assay: Example IV postemergence foliar-applied, greenhouse, cereal crops weeds; format: in vivo, Kochia scoparia (L.) Schrad.
Procedure: as §4, §5, §6, §7
as §1, with “20-22 days,” for “approximately 3 weeks,”, “control” for “untreated”, “injury” for “injury or growth inhibition”
as §2, §8

[8] = system: SCPJU; assay: Example I postemergence foliar-applied, greenhouse, direct seeded rice weeds; format: in vivo, Schoenoplectus juncoides (Roxb.) Palla
From the text: as §9, §10, §11, §12, §13, §14
as §1, with “kill. […]” for “kill.”

[9] = system: ECHCG; assay: Example V (second) postemergence foliar-applied ternary mixtures, greenhouse, direct seeded rice weeds; format: in vivo, Echinochloa crus-galli (L.) Beauv.; settings: 280 gai/ha
From the text: Seeds or nutlets of the desired test plant species were planted in a soil matrix prepared by mixing a sandy loam or loam soil (e.g., 32 percent silt, 23 percent clay, and 45 percent sand, with a pH of about 6.5 and an organic matter content of about 1.9 percent) and calcareous grit in an 80 to 20 ratio. The soil matrix was contained in plastic pots with a volume of 1 quart and a surface area of 83.6 square centimeters (cm^2). When required to ensure good germination and healthy plants, a fungicide treatment and/or other chemical or physical treatment was applied. The plants were grown for 8-22 days in a greenhouse with an approximate 14 hr. photoperiod which was maintained at about 29° C. during the day and 26° C. during the night. Nutrients (Peters Excel® 15-5-15 5-Ca 2-Mg and iron chelate) were applied in the irrigation solution as needed and water was added on a regular basis. Supplemental lighting was provided with overhead metal halide 1000-Watt lamps as necessary. The plants were employed for testing when they reached the first through fourth true leaf stage.
Treatments consisted of the benzyl ester of 4-amino-3-chloro-5-fluoro-6-(4-chloro-2-fluoro-3-methoxy-phenyl)pyridine-2-carboxylic acid (Compound A), formulated as an SC (suspension concentrate), an ACCase inhibitor, and a third herbicidal component, each applied alone and in ternary combination. Forms of compound A were applied on an acid equivalent basis.
The ACCase inhibitor component was applied on an active ingredient basis and included cyhalofop-R-butyl formulated as Clincher® SF, fenoxaprop-p-ethyl formulated as RiceStar® HT, and profoxydim formulated as Aura® 20EC. Other herbicidal components were applied on an active ingredient or acid equivalent basis depending on the compound and included penoxsulam formulated as Grasp® SC, bentazon sodium formulated as Basagran®, triclopyr […] (TEA) salt formulated as Grandstand® R, bispyribac sodium formulated as Regiment® 80WP, imazamox ammonium formulated as Beyond®, benzobicyclon, quinclorac formulated as Facet® 75DF, glyphosate dimethylammonium (DMA) salt formulated as Durango® DMA, glufosinate ammonium formulated as Ignite® 280, fentrazamide formulated as an emulsifiable concentrate (EC), propyrisulfuron formulated as Zeta One®, and indanofan (technical grade material).
as §12
as §13, with “concentrate” for “concentrated”, “9” for “10”, “1.25%” for “1.25+/−0.05%”
As required, additional water and/or 97:3 v/v acetone/DMSO was added to individual application solutions so that the final acetone and DMSO concentrations of the application solutions being compared were 8.1% and 0.25%, respectively.
as §14, with “18” for “18 to 20”, “(46” for “(46 to 50”
The treated plants and control plants were placed in a greenhouse as described above and watered by sub-irrigation to prevent wash-off of the test compounds. […]

In the case of `COCc1cnc(C2=NC(C)(C(C)C)C(=O)N2)c(C(=O)O)c1` (stereo not shown) [Imazamox ammonium], the “Visual Weed Control (%) - 21 DAA CYPES Obs” value ([1]; 12 gae/ha) is reported as 60% and the “Visual Weed Control (%) - 21 DAA IPOHE Obs” value [2] is reported as 65%.
With `CCC1(CC2(c3cccc(Cl)c3)CO2)C(=O)c2ccccc2C1=O` (stereo not shown) [Indanofan] the “Visual Weed Control (%) - 22 DAA LEFCH Obs” value ([3]; 72.5 gai/ha) was 30% and the “Visual Weed Control (%) - 22 DAA LEFCH Obs” value ([3]; 145 gai/ha) was 38%.
With `CCc1cc(C)cc(CC)c1-c1c(OC(=O)C(C)(C)C)n2n(c1=O)CCOCC2` [Pinoxaden, 8-(2,6-diethyl-4-methylphenyl)-1,2,4,5-tetrahydro-7-oxo-7H-pyrazolo[1,2-d][1,4,5]oxadiazepin-9-yl 2,2-dimethylpropanoate] the “Visual Weed Control (%) - 21 DAA PHAMI Obs” value ([4]; Pinoxaden 15 gai/ha) was 78%, the “Visual Weed Control (%) - 21 DAA PHAMI Obs” value ([4]; Pinoxaden 30 gai/ha) was 94% and the “Visual Weed Control (%) - 21 DAA IPOHE Obs” value ([5]; 15 gai/ha) was 10%. For the same compound, the “Visual Weed Control (%) - 21 DAA IPOHE Obs” value ([5]; 30 gai/ha) was 10%, the “Visual Weed Control (%) - 21 DAA IPOHE Obs” value ([5]; 60 gai/ha) was 0% and the “Visual Weed Control (%) - 21 DAA ECHCO Obs” value ([6]; 15 gai/ha) was 15%. For the same compound, the “Visual Weed Control (%) - 21 DAA ECHCO Obs” value ([6]; 30 gai/ha) was 85%, the “Visual Weed Control (%) - 21 DAA ECHCO Obs” value ([6]; 60 gai/ha) was 95% and the “Visual Weed Control (%) - 21 DAA KCHSC Obs” value ([7]; Pinoxaden 15 gai/ha) was 0%. For the same compound, the “Visual Weed Control (%) - 21 DAA KCHSC Obs” value ([7]; Pinoxaden 30 gai/ha) was 15%, the “Visual Weed Control (%) - 21 DAA SCPJU Obs” value ([8]; 15 gai/ha) was 0% and the “Visual Weed Control (%) - 21 DAA SCPJU Obs” value ([8]; 30 gai/ha) was 0%. The “Visual Weed Control (%) - 21 DAA SCPJU Obs” value ([8]; 60 gai/ha) was 0%.
With `O=C(O)c1c(Cl)ccc2cc(Cl)cnc12` [Quinclorac] the “Visual Weed Control (%) - 21 DAA ECHCG Obs” value [9] was 10% and the “Visual Weed Control (%) - 21 DAA CYPES Obs” value ([1]; 280 gai/ha) was 0%.
